The record followed here is PubChem BioAssay AID1996.

≈ marks a conversion by molar mass, not a printed value.

One may read the kinetic solubility as the concentration staying in solution when a stock, usually in DMSO, is diluted into the medium.

For the data set the following is noted: buffer; pH 7.4; 200.0 µM.
As to `O=C(OCC(=O)c1ccc[nH]1)c1ccc(C(F)(F)F)cc1`, the solubility (kinetic) is 6.2 µg/mL (≈ 20.9 µM).
The same measure for `COC(=O)c1cn(CC(=O)Nc2ccc(F)cc2)c2ccccc12`: under 0.3 µg/mL; for `COc1ccccc1/C=C1\C(=O)Nc2ccccc21`: 2 µg/mL (≈ 7.96 µM); for `COc1ccc(C(=O)/C=C/c2ccc(N(C)C)cc2)c(OC)c1`: 3.2 µg/mL (≈ 10.3 µM).
As for `COC(=O)c1ccc(C(=O)OC)c(NC(=O)/C=C/C(=O)O)c1`, the figure is over 46.1 µg/mL; as for `CCN1CCc2c(OCC(=O)Nc3cccc(C)c3)cccc2C1=O`, over 50.8 µg/mL; as for `CCN(CC)CCn1c(NC(=O)c2ccccc2O)nc2ccccc21`, 18.5 µg/mL (≈ 52.5 µM).
As for `CC(C)c1ccc(CN2C(=O)c3ccccc3S2(=O)=O)cc1`, the figure is 1.2 µg/mL (≈ 3.8 µM); as for `O=S(=O)(NCc1ccc2c(c1)OCO2)c1ccccc1F`, 37.1 µg/mL (≈ 120 µM); as for `CSc1ncc(Sc2ccccc2)c(C(=O)O)n1`, 38.4 µg/mL (≈ 138 µM).
`COc1ccc(CNc2cc(C)ccn2)cc1` had a kinetic solubility of 17.4 µg/mL (≈ 76.2 µM).
The same measure for `COc1ccc(-c2nc(C#N)c(N3CCCCC3)o2)cc1`: 0.3 µg/mL (≈ 1.06 µM); for `Cc1ccccc1C(=O)NC(=S)N(Cc1ccccc1)c1ccccn1`: over 54.2 µg/mL; for `N#CCc1ccc(Oc2ncccn2)cc1`: over 31.7 µg/mL.
The same measure for `CN1CC(C(=O)c2cccs2)C(c2ccc(Cl)cc2)C1` (stereo not given): over 45.9 µg/mL.
The compound `CCN(CC)CC(=O)Nc1sc(C)cc1C(=O)c1ccccc1` returned a kinetic solubility of 2.5 µg/mL (≈ 7.57 µM).
As for `Cc1cc(Cl)nc(SCC(=O)c2ccccc2)n1`, the figure is 29.3 µg/mL (≈ 105 µM).
For the compound `Cc1csc(SCC(=O)Nc2sccc2C(N)=O)n1`, the kinetic solubility was 43.8 µg/mL (≈ 140 µM).
The same measure for `CCOC(=O)CSc1nc(COc2ccccc2)nc2ccccc12`: 0.6 µg/mL (≈ 1.69 µM); for `Cl.OC(CNC1CCCC1)COc1ccc(Cl)cc1` (stereo not given): over 45.9 µg/mL.
The same measure for `COC(=O)c1ccsc1NS(=O)(=O)c1ccccc1`: 44.1 µg/mL (≈ 148 µM).
As for `CN(CC(=O)Nc1ccc(Cl)c(C(F)(F)F)c1)C(=O)c1cnccn1`, the figure is 13.7 µg/mL (≈ 36.8 µM); as for `Cc1nc2c(cnn2-c2ccccc2)c(=O)[nH]1`, over 33.9 µg/mL.
Turning to `O=C(COc1ccc(Cl)cc1Br)NC1CC1`, the kinetic solubility is over 45.7 µg/mL.
`COc1ccc(NC(=O)O/N=C/c2ccc(N(C)C)cc2)cc1` came in with a solubility (kinetic) of 2.8 µg/mL (≈ 8.94 µM).
As for `CCOCCc1c(O)[nH]c(=S)[nH]c1=O`, the figure is over 32.4 µg/mL; as for `COc1cc(CC(=O)OCC(=O)NC(C)c2ccccc2)cc(OC)c1OC` (stereo not given), over 58.1 µg/mL.
The same measure for `CC(C)(C#CC(O)(c1ccccc1)c1ccccc1)N1CCCCC1`: 46.3 µg/mL (≈ 139 µM); for `Cc1ccc(-c2cn(-c3ccccc3)c(=S)[nH]2)cc1C`: 16.6 µg/mL (≈ 59.2 µM).
As for `CCCOc1ccc(S(=O)(=O)N2CCN(C)CC2)c2ccccc12`, the figure is 39.2 µg/mL (≈ 112 µM); as for `Cc1cc(=O)[nH]c(SCc2cccc3ccccc23)n1`, 23.5 µg/mL (≈ 83.2 µM).
`CCCc1ncc(C(O)c2cccc(OC)c2)n1C` (stereo not given): the solubility (kinetic) is over 39.1 µg/mL.
In turn, `O=C1OC(Nc2ccc3ncccc3c2)c2ccccc21` (stereo not given) had a kinetic solubility of 4.3 µg/mL (≈ 15.6 µM).
Compound `O=C(O)CN1C(=O)NC2(CCc3ccccc32)C1=O` (stereo not given) gave a kinetic solubility of over 39 µg/mL.
As for `O=C(Nc1ccc(F)cc1)c1cccnc1Oc1ccccc1`, the figure is 4.3 µg/mL (≈ 13.9 µM).
The same measure for `O=C(NC12CC3CC(CC(C3)C1)C2)N1CCN(C2CCCCC2)CC1`: 42.4 µg/mL (≈ 123 µM); for `COc1cc(C=O)ccc1Oc1ccc(S(=O)(=O)N2CCOCC2)cc1[N+](=O)[O-]`: 28.7 µg/mL (≈ 67.9 µM); for `O=C(COC(=O)Cc1ccccc1[N+](=O)[O-])NCC1CCCCC1`: 10.8 µg/mL (≈ 32.3 µM).
Compound `COc1cccc(COC(=O)C2CCN(C(=O)c3ccccc3C)CC2)c1OC` returned a solubility (kinetic) of over 59.6 µg/mL.
As for `O=Cc1ccc(OCCN2CCCC2=O)cc1`, the figure is over 35 µg/mL; as for `CCOc1ccc2oc(C(=O)NCC3CCCO3)c(C)c2c1` (stereo not given), 39.6 µg/mL (≈ 131 µM); as for `OCC[NH+](CCO)CC(O)COc1ccc(Br)cc1.[Cl-]` (stereo not given), over 55.6 µg/mL.
As for `Cc1ccc(NC(=O)C(=O)c2ccc(C)cc2)cc1`, the figure is 0.7 µg/mL (≈ 2.76 µM); as for `O=C(O)c1cc(S(=O)(=O)N2CCOCC2)c[nH]1`, over 39 µg/mL.
As for `CCCCn1c(=O)c(CCC(=O)O)nc2ccccc21`, the figure is 31.8 µg/mL (≈ 116 µM); as for `CC1=C(C)CC(C(=O)Nc2nc(C)cs2)C(C(=O)O)C1` (stereo not given), over 44.2 µg/mL.
`Cc1cc([N+](=O)[O-])nn1CC(=O)NC1CCCCC1` came in with a kinetic solubility of over 39.9 µg/mL.
The same measure for `Oc1ccccc1N1CCN(C(c2ccccc2)c2ccccc2)CC1`: 0.4 µg/mL (≈ 1.16 µM); for `Cc1ccc(C)c(S(=O)(=O)NCCN2CCOCC2)c1.Cl`: over 50.2 µg/mL; for `Cc1ccc(C)c(Oc2cc(F)nc(N)n2)c1`: over 35 µg/mL.
The same measure for `O=C(Oc1ccccc1)N1CCOCC1`: over 31.1 µg/mL; for `COc1cccc(CNS(=O)(=O)c2csc(C(N)=O)c2)c1`: over 49 µg/mL; for `CC(C)=CC1C(C(=O)NCCOc2ccccc2)C1(C)C` (stereo not given): 17.7 µg/mL (≈ 61.6 µM).
`Cc1ccc(O)c(NC(=O)c2cc(-c3cccs3)on2)c1`: the kinetic solubility is 0.6 µg/mL (≈ 2 µM).
In turn, `O=C(COC(=O)c1cc(Cl)nc(Cl)c1)NCc1ccc2c(c1)OCO2` came in with a kinetic solubility of 12.1 µg/mL (≈ 31.6 µM).
The compound `COc1ccc(C(C)=O)cc1COC(=O)c1cccnc1Cl` registered a kinetic solubility of 5.7 µg/mL (≈ 17.8 µM). Compared with the last compound, the solubility kinetic is about 2.1-fold lower.
As for `O=C(/C=C/c1ccc2c(c1)OCO2)NC1CCCC1`, the figure is 31.4 µg/mL (≈ 121 µM); as for `Cn1c(SCC(=O)NC2CCCCC2)nnc1-c1ccccc1F`, over 52.3 µg/mL; as for `Cc1ccc(O)c(CNc2nccs2)c1`, 7.4 µg/mL (≈ 33.6 µM).
As for `Cc1ccc[n+](CC(=O)N2CCCc3ccccc32)c1.[Cl-]`, the figure is over 45.4 µg/mL.
In turn, `CN(Cc1ccccc1)C(=O)Cc1ccccc1` gave a kinetic solubility of 35.5 µg/mL (≈ 148 µM).
Turning to `O=C(Nc1cccc([N+](=O)[O-])c1)Nc1cccs1`, the kinetic solubility came to 32.3 µg/mL (≈ 123 µM).
As for `COc1cc(Cl)c(C)cc1NC(=O)COC(=O)C1CC1C` (stereo not given), the figure is 29.9 µg/mL (≈ 95.9 µM); as for `CCOC(=O)C1=C(C)N(CC(C)C)C(=O)/C1=C\c1cccs1`, under 0.7 µg/mL.
As for `CCN(CC)c1ccc(C(=S)NCc2ccccc2)cc1`, the figure is 0.5 µg/mL (≈ 1.68 µM).
As for `CC(=O)c1ccccc1OCC(O)Cn1ccnc1` (stereo not given), the figure is 38.2 µg/mL (≈ 147 µM); as for `O=C(O)Cn1c(-c2ccccn2)nc2ccccc21`, over 38 µg/mL.
`O=C(CN1CCC(c2nc3ccccc3s2)CC1)N1CCCCC1` gave a kinetic solubility of over 51.5 µg/mL.
As for `CCOC(=O)c1ccc(NC(=O)C2COc3ccccc3O2)cc1` (stereo not given), the figure is 2.1 µg/mL (≈ 6.42 µM); as for `Fc1ccccc1COc1ccc(C(=S)N2CCCC2)cc1`, 3.5 µg/mL (≈ 11.1 µM); as for `O=C1CC(=O)N(c2ccc(Cl)cc2)C(=O)N1`, over 35.8 µg/mL.
As for `CCn1cc(C=C2C(=O)N(C)C(=O)N(C)C2=O)c2ccccc21`, the figure is 1 µg/mL (≈ 3.21 µM); as for `COc1ccc(OCC(=O)OCC(=O)NC2CCCC2)cc1`, over 46.1 µg/mL.
The same measure for `COc1ccccc1NC(=O)Nc1ccc2c(c1)nc(C)n2C`: 5.7 µg/mL (≈ 18.4 µM); for `Cc1cc(C)nc(Nc2ccccc2F)n1.Cl`: 26.4 µg/mL; for `CC(C)c1nc2cc(Cl)ccc2n(Cc2ccccc2)c1=O`: 0.4 µg/mL (≈ 1.28 µM).
On to `Cc1cc2oc(C(=O)Nc3nonc3C)c(C)c2cc1Cl`, for which the kinetic solubility was under 0.2 µg/mL.
As to `COc1cccc(CC2(CO)CCN(S(=O)(=O)N(C)C)CC2)c1`, the solubility (kinetic) is over 51.4 µg/mL.
The same measure for `CCOC(=O)c1c(NC(=O)COC(=O)c2cccnc2OCC)sc(C(=O)N(CC)CC)c1C`: 4.6 µg/mL (≈ 9.36 µM); for `CCCNC(=O)c1ccc2c(c1)S(=O)(=O)c1ccccc1C2=O`: 7.9 µg/mL (≈ 24 µM); for `CCN(CC)C(=O)CSC(Nc1ccc(F)cc1)=C(C#N)C#N`: over 49.9 µg/mL.
The same measure for `O=C(c1cccs1)N1CCN=C1SCc1ccc(Cl)cc1`: under 0.4 µg/mL.
As for `O=C(O)CSc1nc2c(c(C(F)(F)F)n1)CCCC2`, the figure is over 43.8 µg/mL; as for `CC(=O)Nc1ccc(NC(=O)COC(=O)c2ccc(S(=O)(=O)NCc3ccco3)cc2)cc1`, 8.9 µg/mL (≈ 18.9 µM); as for `COc1ccc(CCC(=O)NC2CCCc3ccccc32)cc1OC` (stereo not given), 47.5 µg/mL (≈ 140 µM).
`CCOC(=O)C1CCN(S(=O)(=O)c2c[nH]c(=O)[nH]c2=O)CC1`: the solubility (kinetic) is over 49.7 µg/mL.
In turn, `CCOC(=O)c1nc(Nc2ccccc2C)c2ccccc2n1` came in with a solubility (kinetic) of over 46.1 µg/mL.
In turn, `O=C1NC2(CCCCC2)C(=O)N1c1ccc(Cl)cc1` had a kinetic solubility of 3.8 µg/mL (≈ 13.6 µM).
The same measure for `O=C(NCc1ccc(F)cc1)c1cccs1`: 29.9 µg/mL (≈ 127 µM); for `Cl.NCCC(=O)N1c2ccccc2Sc2ccccc21`: 29.9 µg/mL; for `CSc1nc(-c2ccccc2F)c(C#N)c(=O)n1C`: 20.7 µg/mL (≈ 75.2 µM).
The same measure for `Cc1ccc(S(=O)(=O)N2CCCCC2)cc1NC(=O)CCNC(=O)c1ccccc1`: 9.4 µg/mL (≈ 21.9 µM).
The same measure for `O=C1COc2ccc(C(=O)COC(=O)c3ccc(F)cc3Cl)cc2N1`: 5.3 µg/mL (≈ 14.6 µM).
Consider `COc1ccc(NC2=C(NC(C)=O)C(=O)c3ccccc3C2=O)cc1`, for which the kinetic solubility came to 49.5 µg/mL (≈ 147 µM).
As for `Cc1nc2ccccc2c(=O)n1-c1ccc(Cl)cc1Cl`, the figure is over 45.8 µg/mL; as for `O=C(Nc1cccc(Cl)c1)c1cc(F)cc2c1OCOC2`, under 0.7 µg/mL.
In the case of `CC(C)c1ccc(C(=O)OCC(=O)c2c(N)n(C)c(=O)n(C)c2=O)cc1`, the kinetic solubility turned out to be 4.4 µg/mL (≈ 12.2 µM).
The compound `O=[N+]([O-])c1ccc(O)c(C=Nc2ccc3c(c2)OCO3)c1` displayed a solubility (kinetic) of 15.8 µg/mL (≈ 55.2 µM). This solubility kinetic is about 3.6-fold higher than that of the compound before.
`CC1CC(OC(=O)c2ccccc2)(c2ccccc2)C(C)CN1C` (stereo not given) came in with a solubility (kinetic) of over 48.5 µg/mL.
As for `NC(=O)c1cc(Cl)ccc1OCC(=O)NC1CC1`, the figure is over 40.3 µg/mL; as for `CC(=O)NC(=S)Nc1cccc2ccc(C)nc12`, 1.1 µg/mL (≈ 4.24 µM); as for `CC(=O)Oc1ccccc1/C=C/c1nc2ccccc2c(=O)o1`, 27.2 µg/mL (≈ 88.5 µM).
In turn, `COc1ccc(OC)c(CN2CCSCC2)c1` displayed a kinetic solubility of 25.5 µg/mL (≈ 101 µM).
`Cc1cc(/C=N/NC(N)=O)c(C)n1C1CCCCC1` showed a solubility (kinetic) of over 39.4 µg/mL.
As for `CCOC(=O)/C(N=Nc1ccc(C(=O)O)cc1[N+](=O)[O-])=C(\C)O`, the figure is over 48.5 µg/mL.
